The nature of data set [1]: Lipophilicity, log D of the compound. Type of data set: physicochemical. The conditions noted are these: octanol/water.
A short description of data set [2]: Dissociation constant, pKa of the compound. Type of data set: physicochemical.
The nature of data set [3]: Volume of distribution at steady state in Wistar BRL rat plasma at 1 mg/kg, iv and 5 mg/kg, po. The note with it: read-out: Vdss. Type of data set: ADME, organism-based.
The nature of data set [4]: Oral bioavailability in Wistar BRL rat at 5 mg/kg. Format: ADME, organism-based. The note with it: in vivo.
A short description of data set [5]: Cmax in Wistar BRL rat plasma at 5 mg/kg, po. Format: ADME, organism-based. More on the design: dose 5 mg/kg, route oral.
A further data set relates to Rattus norvegicus. The data set is described as follows: Unbound Cmax in Wistar BRL rat plasma at 5 mg/kg, po. Format: ADME, organism-based. The note with it: in vivo. Details: dose 5 mg/kg, route oral.
Data set [6] in a line: Apparent permeability across human Caco2 cell membrane at 20 uM after 1 hr by LC-MS/MS analysis. The conditions noted are these: Caco-2. For orientation: Caco-2 cells form a polarised layer with tight junctions and transporters.
The nature of data set [7]: in vivo. The note with it: Wistar BRL, rat, brain, po, 20 mg/kg.
A short description of data set [8]: in vivo. The note with it: Wistar BRL, rat, cerebrospinal fluid, po, 20 mg/kg.

Data on 28 molecules can be found in ChEMBL document CHEMBL1833934, “Discovery and optimization of 1-(4-(pyridin-2-yl)benzyl)imidazolidine-2,4-dione derivatives as a novel class of selective cannabinoid CB2 receptor agonists” (J Med Chem, 2011).

The term logD denotes the decadic logarithm of the distribution of all forms, ionised or not, between an organic phase and buffer at a given pH. For orientation: pKa means the pH at which an ionisable group is half protonated. Low readings indicate a stronger acid or weaker base, high ones a weaker acid or stronger base. Regarding `CCN1C(=O)CN(Cc2ccc(-c3ccc(F)c(CN4CCCCC4)n3)cc2)C1=O`, in data set [1], the logD came to 2.1. For the same molecule, in data set [2], the pKa is 8.5.
Take `CCCN1C(=O)CN(Cc2ccc(-c3ccc(F)c(CN4CCCCC4)n3)cc2)C1=O`: the logD in data set [1] stood at 2.5. The pKa in data set [2] came out at 8.5.
For the molecule `CC(C)CN1C(=O)CN(Cc2ccc(-c3ccc(F)c(CN4CCS(=O)(=O)CC4)n3)cc2)C1=O`, in [1], the logD was determined as 3. In addition, the pKa in data set [2] was 3.
Molecule `CC(C)CN1C(=O)CN(Cc2ccc(-c3cccc(CN4CCCC(F)(F)C4)n3)cc2)C1=O` registered a logD in data set [1] of 4.5. The molecule further returned a pKa in data set [2] of 5.3.
For `CC(C)CN1C(=O)CN(Cc2ccc(-c3ccc(F)c(CN4CCCC(F)C4)n3)cc2)C1=O` (centres undefined), in that order: 4.1 and 7.2.
In data set [1], `O=C1CN(Cc2ccc(-c3cccc(CN4CCCCC4)n3)cc2)C(=O)N1C1CCC1` showed a logD of 2.7.
The bioavailability is the share of a dose that reaches the circulation, judged against a reference dose that is usually intravenous. High values mean much systemic uptake, low ones little systemic uptake. What is called Cmax is the maximum level reached in the sampled fluid or tissue. In general, Papp refers to a coefficient for how fast a substance crosses the barrier. Take `CC(C)CN1C(=O)CN(Cc2ccc(-c3cccc(CN4CCCCC4)n3)cc2)C1=O`: the Vd in data set [3] was 5.4 L/kg. In data set [4], the bioavailability was determined as 4%. The peak level in data set [5] (Cmax) was 20 nM. This molecule yielded a fCmax in the data set on Rattus norvegicus of 0.006 µM. Further, in data set [1], the logD turned out to be 2.8. Further, in [2], the pKa was determined as 8.9. Also, the Papp at 1 h, 20 µM in data set [6] worked out at 21 ×10⁻⁶ cm/s.
As to `CCN1C(=O)CN(Cc2ccc(-c3cccc(CC4CCCCC4)n3)cc2)C1=O`, the logD in [1] is 5.6.
In [1], `CC(C)N1C(=O)CN(Cc2ccc(-c3cccc(CN4CCCCC4)n3)cc2)C1=O` gave a logD of 2.2.
In data set [1], `O=C1CN(Cc2ccc(-c3cccc(CN4CCCCC4)n3)cc2)C(=O)N1CC(F)(F)F` yielded a logD of 1.9.
The molecule `O=C1CN(Cc2ccc(-c3cccc(CN4CCCCC4)n3)cc2)C(=O)N1C1CC1` registered a logD in [1] of 1.6. Moreover, the pKa in data set [2] stood at 9.
As to `CC(C)CN1C(=O)CN(Cc2ccc(-c3ccc(F)c(CN4CCCC(C)C4)n3)cc2)C1=O` (centres undefined), in data set [1], the logD was 3.9. The pKa in data set [2] was 8.4.
`CN1C(=O)CN(Cc2ccc(-c3cccc(CN4CCCCC4)n3)cc2)C1=O`: in data set [1], the logD turned out to be 1.3. The pKa in data set [2] was found to be 8.7.
Regarding `O=C1CN(Cc2ccc(-c3cccc(CN4CCCCC4)n3)cc2)C(=O)N1CC(F)F`, the logD in [1] came out at 1.6. Also, the pKa in data set [2] came to 8.9.
`O=C1CN(Cc2ccc(-c3ccc(F)c(CN4CCCCC4)n3)cc2)C(=O)N1CC1CCC1` returned a logD in [1] of 3.5. Moreover, in data set [2], the pKa was 8.6.
Take `CC(C)CN1C(=O)CN(Cc2ccc(-c3cccc(CN4CCCC(C)C4)n3)cc2)C1=O` (centres undefined): the logD in data set [1] is 3.4. Also, in data set [2], the pKa was 8.7.
On to `CC(C)CN1C(=O)CN(Cc2ccc(-c3ccc(F)c(CN4CCCCC4)n3)cc2)C1=O`, for which, in [1], the logD came out at 3.4. The pKa in data set [2] amounted to 8.6.
For `CC(C)CN1C(=O)CN(Cc2ccc(-c3ccc(F)c(CN4CCOCC4)n3)cc2)C1=O`, in that order: 3.4 and 6.
For the molecule `O=C1CN(Cc2ccc(-c3ccc(F)c(CN4CCCCC4)n3)cc2)C(=O)N1CC(F)F`, the logD in data set [1] is 1.9. The molecule also registered a pKa in data set [2] of 9.
In data set [1], `O=C1CN(Cc2ccc(-c3ccc(F)c(CN4CCCCC4)n3)cc2)C(=O)N1CC1CC1` displayed a logD of 2.8. Moreover, the pKa in data set [2] worked out at 8.5.
In data set [1], `CCN1C(=O)CN(Cc2ccc(-c3cccc(CN4CCCCC4)n3)cc2)C1=O` yielded a logD of 1.7. In addition, the pKa in data set [2] amounted to 8.8.
In data set [1], `CC(C)CN1C(=O)CN(Cc2ccc(-c3cccc(CN4CCS(=O)(=O)CC4)n3)cc2)C1=O` gave a pH-dependent lipophilicity (logD) of 3. The pKa in [2] was 3.7.
The molecule `O=C1CN(Cc2ccc(-c3ccc(F)c(CN4CCCCC4)n3)cc2)C(=O)N1C1CC1` yielded a logD in data set [1] of 2. The pKa in [2] amounted to 8.6.
In turn, `CCCN1C(=O)CN(Cc2ccc(-c3cccc(CN4CCCCC4)n3)cc2)C1=O` returned a logD in data set [1] of 2.2. This molecule also returned a pKa in [2] of 8.8.
In data set [1], `O=C1CN(Cc2ccc(-c3cccc(CN4CCCCC4)n3)cc2)C(=O)N1CC1CC1` had a logD of 2.5. The molecule also registered a pKa in data set [2] of 8.9.
Take `O=C1CN(Cc2ccc(-c3ccc(F)c(CN4CCS(=O)(=O)CC4)n3)cc2)C(=O)N1C1CC1`: the Vd in data set [3] stood at 0.94 L/kg. The bioavailability in data set [4] was 100%. This molecule gave a Cmax in data set [5] of 3800 nM. The molecule also gave a fCmax in the data set on Rattus norvegicus of 1.7 µM. Moreover, the logD in data set [1] is 1. Further, in data set [2], the pKa was found to be 2.8. Further, the values for the Kp at 4 h in the data set “in vivo [7]” and in “in vivo [8]” were 0.05 and 0.14, respectively. Besides, the Papp at 1 h, 20 µM in data set [6] was determined as 17.3 ×10⁻⁶ cm/s.
`CC(C)CN1C(=O)CN(Cc2ccc(-c3ccc(F)c(CN4CCCC(F)(F)C4)n3)cc2)C1=O` registered a logD in data set [1] of 4.7. Besides, in data set [2], the pKa is 5.
Regarding `CC(C)CN1C(=O)CN(Cc2ccc(-c3cccc(CN4CCCC(F)C4)n3)cc2)C1=O` (centres undefined), in data set [1], the logD came out at 3.7. Moreover, the pKa in [2] was 7.4.
